The record followed here is patent US8183251B2, “Hydantoin compounds and pharmaceutical compositions thereof” (AstraZeneca AB, priority 2006, dated 2012).

Structures can show the parent of a compound that is named as a salt.

Common to all, as to type: biochemical
Experiment [1] has as its system human MMP9 catalytic domain. The experiment is described as follows: Isolated enzyme assay MMP9 (fluorogenic substrate). To be noted: IC50 (MMP9) divided by IC50 (MMP12). As for the experimental part: Recombinant human MMP9 catalytic domain was expressed and then purified by Zn chelate column chromatography followed by hydroxamate affinity column chromatography. The enzyme can be used to monitor inhibitors of activity as follows: MMP9 (5 ng/ml final concentration) is incubated for 30 minutes at RT with the synthetic substrate Mca-Pro-Cha-Gly-Nva-His-Ala-Dpa-NH2 (5 μM) in assay buffer (0.1M “Tris-HCl” (trade mark) buffer, pH 7.3 containing 0.1M NaCl, 20 mM CaCl2, 0.020 mM ZnCl and 0.05% (w/v) “Brij 35” (trade mark) detergent) in the presence (10 concentrations) or absence of inhibitors. Activity is determined by measuring the fluorescence at λex 320 nm and λem 405 nm. Percent inhibition is calculated as follows: […]
% Inhibition is equal to the [Fluorescenceplus inhibitor−Fluorescencebackground] divided by the [Fluorescenceminus inhibitor−Fluorescencebackground].
A protocol for testing against other matrix metalloproteinases, including MMP9, using expressed and purified pro MMP is described, for instance, by C. Graham Knight et al., (1992) FEBS Lett., 296 (3), 263-266.

For a further experiment, the target named is T1, hMMP8 (Homo sapiens, UniProt P22894).
T1 construct: purchased Calbiochem
The experiment is described as follows: Isolated enzyme assay MMP8 (fluorogenic substrate). Particulars: IC50 (MMP8) divided by IC50 (MMP12). As for the experimental part: Purified pro-MMP8 is purchased from Calbiochem. The enzyme (at 10 μg/ml) is activated by p-amino-phenyl-mercuric acetate (APMA) at 1 mM for 2.5 h, 35° C. The activated enzyme can be used to monitor inhibitors of activity as follows: MMP8 (200 ng/ml final concentration) is incubated for 90 minutes at 35° C. (80% H2O) with the synthetic substrate Mca-Pro-Cha-Gly-Nva-His-Ala-Dpa-NH2 (12.5 μM) in assay buffer (0.1M “Tris-HCl” (trade mark) buffer, pH 7.5 containing 0.1M NaCl, 30 mM CaCl2, 0.040 mM ZnCl and 0.05% (w/v) “Brij 35” (trade mark) detergent) in the presence (10 concentrations) or absence of inhibitors. Activity is determined by measuring the fluorescence at λex 320 nm and λem 405 nm. Percent inhibition is calculated as follows: % Inhibition is equal to the [Fluorescenceplus inhibitor−Fluorescencebackground] divided by the [Fluorescenceminus inhibitor−Fluorescencebackground].

For experiment [2], the target named is T2, human MMP14 catalytic domain (Homo sapiens, UniProt P50281).
T2 construct: Recombinant human MMP14 catalytic domain; made in house
The experiment is described as follows: Isolated enzyme assay MMP14 (fluorogenic substrate). To be noted: IC50 (MMP14) divided by IC50 (MMP12). As to the method: Recombinant human MMP14 catalytic domain may be expressed and purified as described by Parkar A. A. et al, (2000), Protein Expression and Purification, 20, 152. The purified enzyme can be used to monitor inhibitors of activity as follows: MMP14 (10 ng/ml final concentration) is incubated for 60 minutes at room temperature with the synthetic substrate Mca-Pro-Cha-Gly-Nva-His-Ala-Dpa-NH2 (10 μM) in assay buffer (0.1M “Tris-HCl” (trade mark) buffer, pH 7.5 containing 0.1M NaCl, 20 mM CaCl2, 0.020 mM ZnCl and 0.05% (w/v) “Brij 35” (trade mark) detergent) in the presence (5 concentrations) or absence of inhibitors. Activity is determined by measuring the fluorescence at λex 320 nm and λem 405 nm. Percent inhibition is calculated as follows: % Inhibition is equal to the [Fluorescenceplus inhibitor−Fluorescencebackground] divided by the [Fluorescenceminus inhibitor−Fluorescencebackground].

The target of experiment [3] is T3, human MMP19 catalytic domain (Homo sapiens, UniProt Q99542).
T3 construct: Recombinant human MMP19 catalytic domain; made in house
The experiment is described as follows: Isolated enzyme assay MMP19 (fluorogenic substrate). To be noted: IC50 (MMP19) divided by IC50 (MMP12). As to the method:
Recombinant human MMP19 catalytic domain may be expressed and purified as described by Parkar A. A. et al, (2000), Protein Expression and Purification, 20:152. The purified enzyme can be used to monitor inhibitors of activity as follows: MMP19 (40 ng/ml final concentration) is incubated for 120 minutes at 35° C. with the synthetic substrate Mca-Pro-Leu-Ala-Nva-Dpa-Ala-Arg-NH2 (5 μM) in assay buffer (0.1M “Tris-HCl” (trade mark) buffer, pH 7.3 containing 0.1M NaCl, 20 mM CaCl2, 0.020 mM ZnCl and 0.05% (w/v) “Brij 35” (trade mark) detergent) in the presence (5 concentrations) or absence of inhibitors. Activity is determined by measuring the fluorescence at λex 320 nm and λem 405 nm. Percent inhibition is calculated as follows: % Inhibition is equal to the [Fluorescenceplus inhibitor−Fluorescencebackground] divided by the [Fluorescenceminus inhibitor−Fluorescencebackground].

In experiment [4] the target is T4, human MMP12 catalytic domain (Homo sapiens, UniProt P39900).
T4 construct: Recombinant human MMP12 catalytic domain; made in house
The experiment is described as follows: Isolated enzyme assay MMP12 (fluorogenic substrate). To be noted: recombinant human MMP12 catalytic domain, 60 minutes at room temperature; read-out: hMMP12 IC50. As for the experimental part: Recombinant human MMP12 catalytic domain may be expressed and purified as described by Parkar A. A. et al, (2000), Protein Expression and Purification, 20, 152. The purified enzyme can be used to monitor inhibitors of activity as follows: MMP12 (50 ng/ml final concentration) is incubated for 60 minutes at room temperature with the synthetic substrate Mca-Pro-Cha-Gly-Nva-His-Ala-Dpa-NH2 (10 μM) in assay buffer (0.1M “Tris-HCl” (trade mark) buffer, pH 7.3 containing 0.1M NaCl, 20 mM CaCl2, 0.020 mM ZnCl and 0.05% (w/v) “Brij 35” (trade mark) detergent) in the presence (10 concentrations) or absence of inhibitors. Activity is determined by measuring the fluorescence at λex 320 nm and λem 405 nm. Percent inhibition is calculated as follows: % Inhibition is equal to the [Fluorescenceplus inhibitor−Fluorescencebackground] divided by the [Fluorescenceminus inhibitor−Fluorescencebackground].

T3 sequence (Q99542 98-256 limits assumed): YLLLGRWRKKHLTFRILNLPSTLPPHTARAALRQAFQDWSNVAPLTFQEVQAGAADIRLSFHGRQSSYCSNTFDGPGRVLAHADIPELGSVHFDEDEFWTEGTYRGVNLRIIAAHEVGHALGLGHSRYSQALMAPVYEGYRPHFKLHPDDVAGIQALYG
T1 sequence (P22894 101-467): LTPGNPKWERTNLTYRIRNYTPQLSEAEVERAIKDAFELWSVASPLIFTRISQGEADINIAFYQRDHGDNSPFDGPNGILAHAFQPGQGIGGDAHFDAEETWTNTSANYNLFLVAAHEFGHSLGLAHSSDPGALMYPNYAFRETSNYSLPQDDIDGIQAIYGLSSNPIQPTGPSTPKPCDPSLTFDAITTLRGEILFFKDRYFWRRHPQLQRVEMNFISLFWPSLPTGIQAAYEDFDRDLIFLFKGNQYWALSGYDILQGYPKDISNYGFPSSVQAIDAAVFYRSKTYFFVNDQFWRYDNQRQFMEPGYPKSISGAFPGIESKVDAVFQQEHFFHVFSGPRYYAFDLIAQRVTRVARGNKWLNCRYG
T4 sequence (P39900 106-263 limits assumed): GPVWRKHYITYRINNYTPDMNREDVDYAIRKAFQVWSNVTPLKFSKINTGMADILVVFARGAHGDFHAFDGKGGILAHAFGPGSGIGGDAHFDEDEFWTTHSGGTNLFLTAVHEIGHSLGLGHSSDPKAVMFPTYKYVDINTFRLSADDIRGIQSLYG

As for `CCc1ncc(Oc2ccc(CN(C)S(=O)(=O)C[C@@]3(C4CC4)NC(=O)NC3=O)cc2)cn1` [Example 5, 1-[(4S)-4-Cyclopropyl-2,5-dioxoimidazolidin-4-yl]-N-({4-[(2-ethylpyrimidin-5-yl)oxy]phenyl}methyl)-N-methylmethanesulfonamide], the “Selectivity for inhibition of hMMP12 over: hMMP9” value in experiment [1] is listed as 523. At hMMP8, the “Selectivity for inhibition of hMMP12 over: hMMP8” value is listed as 417. In addition, in experiment [2], the “Selectivity for inhibition of hMMP12 over: hMMP14” value was above 588. Besides, the “Selectivity for inhibition of hMMP12 over: hMMP19” value in experiment [3] is on record as above 588. Further, the IC50 in experiment [4] was 17 nM.

Turning to `CN(Cc1ccc(Oc2cncnc2)cc1)S(=O)(=O)C[C@@]1(C2CC2)NC(=O)NC1=O` [Example 1, 1-[(4S)-4-Cyclopropyl-2,5-dioxoimidazolidin-4-yl]-N-methyl-N-{[4-(pyrimidin-5-yloxy)phenyl]methyl}methanesulfonamide trifluoroacetic acid salt], the “Selectivity for inhibition of hMMP12 over: hMMP9” value in experiment [1] was above 525. Moreover, on hMMP8, the “Selectivity for inhibition of hMMP12 over: hMMP8” value came out at 320. For the same compound, the “Selectivity for inhibition of hMMP12 over: hMMP14” value in experiment [2] was above 525. For the same compound, the “Selectivity for inhibition of hMMP12 over: hMMP19” value in experiment [3] is above 525. Besides, the IC50 in experiment [4] was found to be 19 nM.

Regarding `Cc1ncc(Oc2ccc(CN(C)S(=O)(=O)C[C@@]3(C4CC4)NC(=O)NC3=O)cc2)cn1` [Example 3, 1-[(4S)-4-Cyclopropyl-2,5-dioxoimidazolidin-4-yl]-N-methyl-N-({4-[(2-methylpyrimidin-5-yl)oxy]phenyl}methyl)methanesulfonamide], the “Selectivity for inhibition of hMMP12 over: hMMP9” value in experiment [1] is listed as 857. Further, at hMMP8, the “Selectivity for inhibition of hMMP12 over: hMMP8” value is above 628. Also, in experiment [2], the “Selectivity for inhibition of hMMP12 over: hMMP14” value is recorded as above 7142. Also, the “Selectivity for inhibition of hMMP12 over: hMMP19” value in experiment [3] is given as above 2800. Besides, the IC50 in experiment [4] is 14 nM.

`CN(Cc1ccc(Oc2cnc(C(F)(F)F)nc2)cc1)S(=O)(=O)C[C@@]1(C2CC2)NC(=O)NC1=O` [Example 4, 1-[(4S)-4-Cyclopropyl-2,5-dioxoimidazolidin-4-yl]-N-methyl-N-[(4-{[2-(trifluoromethyl)pyrimidin-5-yl]oxy}phenyl)methyl]methanesulfonamide]: the “Selectivity for inhibition of hMMP12 over: hMMP9” value in experiment [1] is recorded as above 795. Further, at hMMP8, the “Selectivity for inhibition of hMMP12 over: hMMP8” value is recorded as above 1168. Further, in experiment [2], the “Selectivity for inhibition of hMMP12 over: hMMP14” value is listed as above 3560. The “Selectivity for inhibition of hMMP12 over: hMMP19” value in experiment [3] is above 2882. For the same compound, in experiment [4], the IC50 amounted to 8.3 nM.

Consider `CN(Cc1ccc(Oc2cnc(C3CC3)nc2)cc1)S(=O)(=O)C[C@@]1(C2CC2)NC(=O)NC1=O` [Example 2, 1-[(4S)-4-Cyclopropyl-2,5-dioxoimidazolidin-4-yl]-N-({4-[(2-cyclopropylpyrimidin-5-yl)oxy]phenyl}methyl)-N-methylmethanesulfonamide], for which the “Selectivity for inhibition of hMMP12 over: hMMP9” value in experiment [1] stood at 1440. In addition, the “Selectivity for inhibition of hMMP12 over: hMMP8” value on hMMP8 is listed as 2120. Further, the “Selectivity for inhibition of hMMP12 over: hMMP14” value in experiment [2] is recorded as above 2320. For the same compound, the “Selectivity for inhibition of hMMP12 over: hMMP19” value in experiment [3] is listed as above 2320. Besides, the 50% inhibitory concentration (IC50) in experiment [4] was 4.3 nM.

As for `C[C@]1(CS(=O)(=O)NCc2ccc(Oc3ccccc3)cc2)NC(=O)NC1=O` [reference compound], the “Selectivity for inhibition of hMMP12 over: hMMP9” value in experiment [1] came to 261. The “Selectivity for inhibition of hMMP12 over: hMMP8” value at hMMP8 is reported as 202. Besides, the “Selectivity for inhibition of hMMP12 over: hMMP14” value in experiment [2] is above 330. In addition, the “Selectivity for inhibition of hMMP12 over: hMMP19” value in experiment [3] is recorded as above 330. In addition, the IC50 in experiment [4] was 151 nM.

Consider `O=C1NC(=O)[C@](CS(=O)(=O)NCc2ccc(Oc3cnc(C(F)(F)F)nc3)cc2)(C2CC2)N1` [Example 6, 1-[(4S)-4-Cyclopropyl-2,5-dioxoimidazolidin-4-yl]-N-[(4-{[2-(trifluoromethyl)pyrimidin-5-yl]oxy}benzyl)]methane sulfonamide], for which the “Selectivity for inhibition of hMMP12 over: hMMP9” value in experiment [1] is on record as 1530. Besides, the “Selectivity for inhibition of hMMP12 over: hMMP8” value on hMMP8 was 657. For the same compound, in experiment [4], the IC50 was found to be 63.7 nM.

The term IC50 denotes the midpoint of a concentration-inhibition curve.
